The results in this text go back to US7183075B2, “Purified and isolated potassium-chloride cotransporter nucleic acids and polypeptides and therapeutic and screening methods using same” (Vanderbilt University, priority 2000, dated 2007).

Where two headings read alike, the source gives them in different places.

For this assay, the target named is T1, hKCC3a (Homo sapiens, UniProt Q9UHW9, L346X/L35X/L789X).
T1 construct: A full-length hKCC3a construct has also been generated for functional expression; expressed in transfected cells; host or cells: Xenopus laevis oocytes injected with cRNA
T1 sequence (Q9UHW9 1-1150 L35X/L346X/L789X): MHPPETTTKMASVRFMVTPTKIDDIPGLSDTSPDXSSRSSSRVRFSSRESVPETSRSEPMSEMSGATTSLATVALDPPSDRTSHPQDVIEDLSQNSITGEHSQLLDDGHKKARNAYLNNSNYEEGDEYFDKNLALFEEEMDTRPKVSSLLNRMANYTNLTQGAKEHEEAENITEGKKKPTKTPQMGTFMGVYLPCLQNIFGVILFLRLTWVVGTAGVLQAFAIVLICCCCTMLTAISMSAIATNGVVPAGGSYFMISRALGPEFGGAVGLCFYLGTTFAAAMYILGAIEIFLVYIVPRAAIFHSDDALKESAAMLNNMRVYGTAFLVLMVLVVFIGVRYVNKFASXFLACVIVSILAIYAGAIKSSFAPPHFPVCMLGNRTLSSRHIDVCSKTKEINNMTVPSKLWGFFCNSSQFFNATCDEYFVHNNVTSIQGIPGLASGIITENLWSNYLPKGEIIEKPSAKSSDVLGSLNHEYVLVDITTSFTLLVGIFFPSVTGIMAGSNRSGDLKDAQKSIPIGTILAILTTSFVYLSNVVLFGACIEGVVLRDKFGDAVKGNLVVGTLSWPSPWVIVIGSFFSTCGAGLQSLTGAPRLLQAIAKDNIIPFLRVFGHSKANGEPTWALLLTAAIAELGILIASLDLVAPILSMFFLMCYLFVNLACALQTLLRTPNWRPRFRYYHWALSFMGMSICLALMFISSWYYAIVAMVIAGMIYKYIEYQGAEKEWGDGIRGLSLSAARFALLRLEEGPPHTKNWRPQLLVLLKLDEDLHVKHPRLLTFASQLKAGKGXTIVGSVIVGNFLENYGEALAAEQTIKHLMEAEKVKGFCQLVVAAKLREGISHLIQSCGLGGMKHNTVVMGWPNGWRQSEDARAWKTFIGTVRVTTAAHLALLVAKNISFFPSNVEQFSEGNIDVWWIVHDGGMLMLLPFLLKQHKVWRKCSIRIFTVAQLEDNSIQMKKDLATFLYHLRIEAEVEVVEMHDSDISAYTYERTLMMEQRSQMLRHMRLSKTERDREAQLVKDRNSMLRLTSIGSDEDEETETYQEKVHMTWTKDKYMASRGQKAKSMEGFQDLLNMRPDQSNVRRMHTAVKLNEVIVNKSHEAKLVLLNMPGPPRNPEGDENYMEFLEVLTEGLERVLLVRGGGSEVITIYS
Briefly: 86Rb+ uptake (K+-Cl- cotransport) in Xenopus oocytes injected with hKCC3a cRNA. The assay is classed as cell-based. The settings on record: for Km: KCC3.

Turning to `[K+]` [Potassium], the Km (read-out: Potassium Km) turned out to be 51.9 mM. HgCl2 [Hg—Cl2]: the “response of KCC3a to mercury” value (50 μM HgCl2, hypotonic) is listed as “resistant”. On to `Cl` [Chloride], for which, where the note is “read-out: Chloride Km”, the Km came out at 14.2 mM.

Usually Km stands for the substrate concentration at which the rate is half of its maximum.
